Results on 1 compound are retold here after patent US20150342847A1, “NOVEL DERIVATIVES OF SINAPINIC ACID AND THE COSMETIC OR PHARMACEUTICAL USES THEREOF” (BASF Beauty Care Solutions France SAS, priority 2012, published 2015).

Holding throughout (format): cell-based
In series [1] the test system is melanocytes of murine line B16. The series can be described thus: Inhibition of melanin production in B16 melanocytes stimulated with an α-MSH derivative. To be noted: Mus musculus, B16 cells, 72 hours, read-out: % inhibition of melanin +/− standard deviation. The method, then:
Determination of the percentage inhibition of melanin production by the hydroxytyrosol dihydrosinapate of the invention of formula (IIa) or the ferulic acid derivative of the prior art, by quantitative analysis of the total melanin synthesized by melanocytes of murine line B16 following application of the compound under test.
Melanocytes (B16 cells) are cultured for 24 hours in a 96-well plate in an appropriate medium. […] After 72 hours of incubation, the culture medium is withdrawn, and total melanin is quantified by measuring the absorbance at 405 nm against a standard range of synthetic melanin from 0.78 to 100 μg/mL.
The results are expressed as percentage inhibition of melanin production relative to the negative control, and are presented in Table 1.
The inhibitory activity on melanin production of the product tested is calculated as a percentage according to the following formula:
% inhibition=[(mean stimulated control−mean basal control)−(sample value−mean basal control)]/(mean stimulated control−mean basal control)×100
where: • Mean stimulated control: mean of the values obtained with a medium supplemented with an alpha-MSH derivative • Sample value: value obtained with the compound under test • Mean basal control: Mean of the values obtained with a medium not supplemented with an alpha-MSH derivative

For series [2], the target named is T1, human tyrosinase (Homo sapiens, UniProt P14679).
T1 construct: endogenous in cells; host or cells: normal human melanocytes obtained from abdominal plasty
T1 sequence (P14679 19-529): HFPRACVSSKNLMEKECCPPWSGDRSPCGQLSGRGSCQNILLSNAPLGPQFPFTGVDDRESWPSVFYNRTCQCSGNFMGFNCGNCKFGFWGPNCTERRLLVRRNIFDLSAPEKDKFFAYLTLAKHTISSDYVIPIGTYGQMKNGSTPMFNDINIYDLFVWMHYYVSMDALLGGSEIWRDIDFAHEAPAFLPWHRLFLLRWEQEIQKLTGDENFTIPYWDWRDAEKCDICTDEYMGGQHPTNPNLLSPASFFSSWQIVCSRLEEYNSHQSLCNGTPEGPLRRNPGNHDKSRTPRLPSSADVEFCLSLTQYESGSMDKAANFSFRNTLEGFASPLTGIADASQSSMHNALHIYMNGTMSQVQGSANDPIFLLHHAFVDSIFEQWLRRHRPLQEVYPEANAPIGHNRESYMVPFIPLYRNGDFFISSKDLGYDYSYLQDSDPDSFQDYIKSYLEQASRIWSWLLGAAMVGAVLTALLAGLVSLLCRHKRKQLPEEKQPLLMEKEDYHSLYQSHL
As to the kind of experiment: Anti-human tyrosinase activity in normal human melanocytes (MBTH/L-Dopa, OD490). The procedure:
Study of the inhibition of tyrosinase by the hydroxytyrosol dihydrosinapate of the invention of formula (IIa), in comparison with the prior-art ferulic acid derivative, by quantitative analysis of the human tyrosinase activity of melanocytes cultured as a monolayer following application of the compound under test. Normal human melanocytes (obtained from abdominal plasty) are seeded in a 24-well plate at 80000 cells per well. They are cultured until confluence, and the compounds under test are applied in the culture media for 24 hours. After 24 hours, the media are removed and the melanocytes are detached by mechanical action. Extraction is carried out by thermal shock and then the supernatants are recovered and incubated with MBTH (methyl benzothiazolinone-hydrazone) (Sigma) and L-Dopa (Sigma). The optical density (OD) at 490 nm (OD490) is measured after 30 minutes of incubation, and the inhibition of tyrosinase is calculated according to the following formula: % inhibition=100−[100×(OD490 sample/level of proteins in sample)/(OD490 negative control/level of proteins in negative control)] The OD490 is therefore related to the level of protein, which is the measurement in each culture well. […] The results are presented as % inhibition of activity of tyrosinase, in Table 2.

Series [3] has as its system keratinocytes. The series can be described thus: Cytotoxicity, MTT cell viability on keratinocytes. To be noted: for Percentage cell viability, Mean: MTT. The procedure: (§1) Study of cell viability following application of the hydroxytyrosol dihydrosinapate of the invention of formula (IIa) to keratinocytes or melanocytes.
(§2) The cells (keratinocytes or melanocytes) were cultured in a 96-well plate at 37° C. under 5% CO2 in an appropriate medium until confluence. The medium was withdrawn and then an amount of 200 μL of a 0.5 mg/mL MTT solution was added. The plates were then incubated at 37° C. for 3 hours, after which the MTT solution was withdrawn from each well and replaced with DMSO. The plates were agitated for 15 minutes, and the optical density was measured at 550 nm.
(§3) The negative cytotoxicity control is PBS. The positive cytotoxicity control is 0.25% SDS. 0.1% DMSO was used as control.

In series [4] the test system is melanocytes. As to the kind of experiment: Cytotoxicity, MTT cell viability on melanocytes. The note with it: for Percentage cell viability, Mean: MTT. The procedure:
as §1, §2, §3

[5] abbreviates: 10^−6, 10^−5 and 10^−4 M, tolerated threshold 75% viability.

As to `COc1cc(CCC(=O)OCCc2ccc(O)c(O)c2)cc(OC)c1O` [Hydroxytyrosol dihydrosinapate (IIa), hydroxytyrosol dihydrosinapate], the inhibition at 10 µM is 75% in series [1] (10 μM) and -4.53% in series [2] (normal human melanocytes, 10 μM, 24 hours, read-out: % inhibition of activity of tyrosinase +/− standard deviation). Besides, the inhibition at 30 µM in series [1] (30 μM) was found to be 106%. Also, in series [1] (50 μM), the inhibition at 50 µM was 115%. Moreover, the “inhibition of the activity of human tyrosinase (in words)” value in series [2] (human tyrosinase in the melanocytes) is reported as “does not inhibit the activity of the human tyrosinase”. Further, the inhibition at 1 µM in series [2] (normal human melanocytes, 1 μM, 24 hours, read-out: % inhibition of activity of tyrosinase +/− standard deviation) was -5.85%. In addition, in series [2] (normal human melanocytes, 100 μM, 24 hours, read-out: % inhibition of activity of tyrosinase +/− standard deviation), the inhibition at 100 µM is -36.6%. Also, the “Percentage cell viability, Mean” value in series [3] (1 μM) is recorded as 105.8%; in series [3] (10 μM), 115.2%; in series [3] (100 μM), 75.7%; in series [4] (1 μM) it was 109.67%; in series [4] (10 μM), 107.53%; in series [4] (100 μM) it was 111.30%. For the same compound, the “cytotoxicity (in words)” value in series [3] (setting [5]) and in series [4] (setting [5]) was “not cytotoxic” each time.
